In patent EP0222702A2, “Basic carbonyl derivatives” (CIBA-GEIGY AG, priority 1985, dated 1987) one finds IC50 and Blutdrucksenkung data, which are given here for one compound.

The test system of test [1] is Noradrenalin-induzierten Vasokonstriktion, isoliert perfundierten Mesenterialgefässen der Ratte. As to the kind of experiment: Inhibition of noradrenaline-induced vasoconstriction in isolated perfused rat mesenteric vessels. The conditions noted are these: in vitro, read-out: Hemmung der Noradrenalin-induzierten Vasokonstriktion (ICso). The source says: Die Verbindungen der Formel 1 und deren Salze besitzen wertvolle pharmakologische Eigenschaften, vor allem im cardiovasculären Bereich. Sie wirken als Calcium-Antagonisten und besitzen a-Rezeptoren blockierende sowie Serotonin-antagonistische Eigenschaften, wie sich z.B. in in-vitro-Versuchen an isoliert perfundierten Mesenterialgefässen der Ratte [McGregor, D.: J.Physiol. 177, 21-30, (1965)] als Hemmung der Kalium-,Noradrenalin-und Serotonin-induzierten Vasokonstriktion, beispielsweise unter Verwendung von 2,6-Dimethyl-4-(3-nitrophenyl)-1,4-dihydropyridin-3-carbonsäurmethylester-5-carbonsäure-[2-[4-(p-fluorben- zoyl)-piperidin-1-yl] -1-phenyl]-äthylester (Diastereomerengemisch) bei einer Konzentration von ca. 5 nMol/Liter (IC50) für die Hemmung der Kalium-induzierten Vasokonstriktion, von ca. 4 nMol/Liter (ICso) für die Hemmung der Noradrenalin-induzierten Vasokonstriktion und von ca. 80 nMol/Liter für die Hemmung der Serotonin-induzierten Vasokonstriktion zeigen lässt.

For test [2], the target named is T1, Serotonin-(5HT2)-Rezeptoren (Rattus norvegicus, UniProt P14842).
T1 construct: from tissue; host or cells: rat brain membranes
Kind of test: Displacement of 3H-ketanserin binding from rat brain membranes. Also on record: species or system Ratten. The conditions noted are these: read-out: Verdrängung der Bindung von 3H-Ketanserin, Konzentration (ICso). The source says:
(§1) Ferner lässt sich die Bindung der neuen Verbindungen oder deren Salze an Dihydropyridin-Rezeptoren mittels Verdrängung der Bindung von ^3H-Nitrendipin an Membranen von Meerschweichenherzen in in-vitro-Versuchen [Erne, P. et al,: Biochem. Biophys. Res. Commm., 118, 842-847 (1984)] z.B. unter Verwendung von 2,6-Dimethyl-4-(3-nitrophenyl)-1,4-dihydropyridin-3-carbonsäuremethylester-5-carbonsäure-[2-[4-(p-fluorobenzoyl)-piperidin-1-yl]-1-phenyl] -äthyl ester (Diastereomerengemisch) bei einer Konzentration (IC50) von etwa 0,2 nMol/Liter nachweisen. Ebenso kann die Bindung der erfindungsgemässen Verbindungen an ai-Rezeptoren durch Verdrängung von ^3H-Prazosin aus seinen Bindungsstellen an der Ratten-Cerebralcortex-Membran gemäss der Methodik von P. Greenengass et al., Eur. J. Pharmacol. 55, 323, (1979), bei etwa 300 nMol/Liter in vitro signifikant nachgewiesen werden. Ausserdem lässt sich die Bindung der neuen Verbindungen oder deren Salze an Serotonin-(5HT2)-Rezeptoren mittels Verdrängung der Bindung von ^3H-Ketanserin an Membranen des Rattenhirns [Leysen, J.E. et al.: Molecul. Pharmacol. 21, 301-304, (1982)] z.B. unter Verwendung von 2,6-Dimethyl-4-(3-nitrophenyl)-1,4-dihydropyridin-3-carbonsäuremethylester-5-carbonsäure-[2-[4-(p-fluorbenzoyl)-piperidin-1-yl]-1-phenyl]-äthylester (Diastereomerengemisch) bei einer Konzentration (ICso) von etwa 6,0 nMol/Liter zeigen.
For orientation: Displacement assays read how much labelled ligand stays bound in the presence of the test substance.

For test [3], the target named is T2, Dihydropyridin-Rezeptoren (Cavia porcellus, UniProt O35505).
T2 construct: from tissue; host or cells: guinea pig heart membranes
Kind of test: Displacement of 3H-nitrendipine binding from guinea pig heart membranes. Also on record: species or system Meerschweichen. The conditions noted are these: membranes of guinea pig hearts, in vitro; read-out: Verdrängung der Bindung von 3H-Nitrendipin, Konzentration (IC50).
Text: as §1

In test [4] the test system is renal hypertensiven Ratte. Kind of test: Blood pressure lowering in the renal hypertensive rat. The class given is in vivo. The conditions noted are these: 2 hours after p.o. application of ca. 2,0 mg/kg. The method, then: Die neuen Verbindungen oder deren Salze bewirken ferner eine Hemmung der durch Angiotensin 11, durch elektrische Stimulation oder durch Phenylephrin oder Noradrenalin induzierten pressorischen Effekte an der "pithed rat" [J.S. Gillespie: Br.J.Pharmacoi. 30, 78 (1967)] bei einer Dosis von etwa 2 mg/kg, und eine Hemmung der durch Serotonin induzierten pressorischen Effekte bei einer Dosis von etwa 6 mg/kg. Die neuen Verbindungen oder deren Salze wirken ausserdem antihypertensiv, was sich z.B. durch Senkung des Blutdrucks an der renal hypertensiven Ratte [Goldblatt et al.: J.exp.med. 59, 347 (1934)] zeigen lässt. So kann z.B. 2 Stunden nach p.o-Applikation von ca. 2,0 mg/kg 2,6-Dimethyl-4-(3-nitrophenyl)-1,4-dihydropyridin-3-carbonsäuremethylester-5-carbonsäure-[2-[4-(p-fluorbenzoyl)-piperidin-1-yl]-1-phenyl]-äthylester (Diastereomerengemisch) an der renal hypertensiven Ratte eine Blutdrucksenkung von ca. -70 mm Hg beobachtet werden.

T2 sequence (O35505 whole entry): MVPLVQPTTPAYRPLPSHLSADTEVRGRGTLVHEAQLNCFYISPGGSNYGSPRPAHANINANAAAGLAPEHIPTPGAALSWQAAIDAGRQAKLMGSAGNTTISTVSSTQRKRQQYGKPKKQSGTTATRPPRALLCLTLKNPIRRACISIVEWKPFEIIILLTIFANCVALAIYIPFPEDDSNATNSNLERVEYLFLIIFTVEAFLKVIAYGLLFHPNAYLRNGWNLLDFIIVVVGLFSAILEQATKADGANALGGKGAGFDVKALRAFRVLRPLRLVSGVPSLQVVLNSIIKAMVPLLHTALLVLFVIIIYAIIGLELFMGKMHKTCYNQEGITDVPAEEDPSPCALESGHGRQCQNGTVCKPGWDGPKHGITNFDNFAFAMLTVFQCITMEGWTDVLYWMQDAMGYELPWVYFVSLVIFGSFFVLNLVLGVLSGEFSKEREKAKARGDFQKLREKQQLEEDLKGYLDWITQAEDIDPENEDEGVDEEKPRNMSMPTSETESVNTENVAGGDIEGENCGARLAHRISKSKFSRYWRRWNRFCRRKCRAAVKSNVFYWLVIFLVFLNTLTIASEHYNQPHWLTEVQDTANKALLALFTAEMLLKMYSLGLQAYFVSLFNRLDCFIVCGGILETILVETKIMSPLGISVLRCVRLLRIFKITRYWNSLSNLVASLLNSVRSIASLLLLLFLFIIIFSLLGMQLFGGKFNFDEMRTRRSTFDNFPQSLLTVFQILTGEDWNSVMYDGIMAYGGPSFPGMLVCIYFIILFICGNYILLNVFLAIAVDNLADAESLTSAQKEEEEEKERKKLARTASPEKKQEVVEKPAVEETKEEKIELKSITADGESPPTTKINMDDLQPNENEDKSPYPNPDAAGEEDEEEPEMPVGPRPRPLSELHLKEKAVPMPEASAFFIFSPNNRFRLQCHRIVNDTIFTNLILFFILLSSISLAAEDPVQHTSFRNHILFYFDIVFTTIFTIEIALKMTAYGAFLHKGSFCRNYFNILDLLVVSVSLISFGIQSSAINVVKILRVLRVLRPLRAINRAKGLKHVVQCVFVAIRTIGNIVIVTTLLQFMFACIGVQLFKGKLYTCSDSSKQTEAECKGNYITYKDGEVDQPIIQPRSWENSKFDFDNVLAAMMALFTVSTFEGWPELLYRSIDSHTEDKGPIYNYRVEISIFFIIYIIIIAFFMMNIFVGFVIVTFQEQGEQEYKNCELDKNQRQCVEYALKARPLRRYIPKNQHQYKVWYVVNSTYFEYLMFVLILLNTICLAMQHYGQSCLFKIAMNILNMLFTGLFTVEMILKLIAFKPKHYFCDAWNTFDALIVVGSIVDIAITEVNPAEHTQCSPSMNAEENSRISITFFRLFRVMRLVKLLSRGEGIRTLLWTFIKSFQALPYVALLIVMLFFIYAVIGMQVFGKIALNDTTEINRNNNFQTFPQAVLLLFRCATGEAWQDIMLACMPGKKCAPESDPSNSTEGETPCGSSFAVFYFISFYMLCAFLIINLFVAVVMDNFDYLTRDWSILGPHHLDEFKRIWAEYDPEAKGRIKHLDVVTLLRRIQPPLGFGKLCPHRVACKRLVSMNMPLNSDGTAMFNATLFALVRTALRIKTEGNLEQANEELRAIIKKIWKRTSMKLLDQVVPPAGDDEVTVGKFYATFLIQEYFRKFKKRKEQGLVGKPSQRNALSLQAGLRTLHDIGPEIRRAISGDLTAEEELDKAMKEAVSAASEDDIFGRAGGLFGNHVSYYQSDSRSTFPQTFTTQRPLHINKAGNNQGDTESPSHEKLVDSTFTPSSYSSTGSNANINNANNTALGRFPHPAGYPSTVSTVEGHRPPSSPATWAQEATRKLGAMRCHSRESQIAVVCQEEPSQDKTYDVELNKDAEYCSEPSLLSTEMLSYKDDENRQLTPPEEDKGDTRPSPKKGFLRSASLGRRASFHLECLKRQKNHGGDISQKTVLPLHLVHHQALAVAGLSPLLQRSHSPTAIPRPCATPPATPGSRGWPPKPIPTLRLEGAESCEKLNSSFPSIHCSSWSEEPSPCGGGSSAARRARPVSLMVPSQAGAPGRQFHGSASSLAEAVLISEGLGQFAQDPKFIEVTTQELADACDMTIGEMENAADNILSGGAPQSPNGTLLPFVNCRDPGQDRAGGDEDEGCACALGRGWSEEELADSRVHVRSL
T1 sequence (P14842 whole entry): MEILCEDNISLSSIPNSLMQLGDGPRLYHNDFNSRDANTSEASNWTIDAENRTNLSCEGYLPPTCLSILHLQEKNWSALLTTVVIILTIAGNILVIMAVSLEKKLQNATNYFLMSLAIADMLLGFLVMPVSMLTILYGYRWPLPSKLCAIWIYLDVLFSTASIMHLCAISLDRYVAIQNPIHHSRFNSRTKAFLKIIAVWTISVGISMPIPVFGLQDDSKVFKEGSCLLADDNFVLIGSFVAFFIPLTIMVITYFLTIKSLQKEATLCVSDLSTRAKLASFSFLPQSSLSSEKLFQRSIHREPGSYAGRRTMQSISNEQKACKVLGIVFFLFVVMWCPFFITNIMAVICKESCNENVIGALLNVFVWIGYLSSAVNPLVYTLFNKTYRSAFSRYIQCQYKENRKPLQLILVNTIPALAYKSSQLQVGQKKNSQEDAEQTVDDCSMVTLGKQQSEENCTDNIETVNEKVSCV

On to `COC(=O)C1=C(C)NC(C)=C(C(=O)OC(CN2CCC(C(=O)c3ccc(F)cc3)CC2)c2ccccc2)C1c1cccc([N+](=O)[O-])c1` (stereo not shown) [Beispiel 1, 2,6-Dimethyl-4-(3-nitrophenyl)-1,4-dihydropyridin-3-carbonsäuremethylester-5-carbonsäure-[2-[4-(p-fluorbenzoyl)-piperidin-1-yl]-1-phenyl]-äthylester], for which the IC50 in test [1] was roughly 4 nM; in test [2], roughly 6 nM; in test [3], roughly 0.2 nM. Further, in test [4], the Blutdrucksenkung result is “ca. -70 mm Hg”.
